Tests used:
[1] = tested on: FIV-PPR in feline T-cells (104-C1); assay: Ex vivo inhibitor analysis against FIV, pelletable reverse transcriptase in culture supernatant; format: cell-based, feline immunodeficiency virus; settings: for FIV replication, pelletable reverse transcriptase: feline T-cells, 1 month
Protocol: For FIV, the assays were performed in FIV-infected feline T-cells which were cultured in the presence of compound 1200 at different concentrations over the course of 1 month. Each data in FIG. 14 represents the amount of pelletable FIV reverse transcriptase in the culture supernatant. […] After one month, the drug-treated cultures were split and replated with and without compound 1200.
The lymphocytic cell line 104-C1 (provided by C. Grant) was used as the target for infection. Cells were cultured in RPMI-1640 media supplemented with 10% FBS, 200 μM L-Glutamine, 1×MEM-Vitamins, 100 μM Sodium Pyruvate, 1×Non-Essential Amino Acids, 5.5×10−5M b-ME, 50 μg/ml Gentamicin, 50 U/ml human recombinant Interleukin-2 (provided by Hoffmann-LaRoche) and 7.5 μg/ml Concanavalin-A. For inhibitor assessment, 5×10^6 cells were infected with FIV-PPR (4×105 RT units) in 1 mL culture for 2 hr at 37° C. […] The cells were then washed with Hanks-buffered saline solution (HBSS) and resuspended in 10 ml of complete medium. The compound 1200 (10 mg/mL in DMSO) was then added to final concentrations of 0.1, 0.5, 1, and 5 μg/ml in duplicate. The cells were then incubated at 37° C. The culture supernatants were monitored for the presence of pelletable reverse transcriptase activity at weekly intervals, as follows. Cell-free culture supernatants (4 ml) were centrifuged at 60K for 30 min and the pellets were resuspended in 100 μl of lysis buffer containing 40 mM TrisHCl (pH 8.1), 360 mM NaCl, 20 mM DTT and 0.2% NP40. Twenty five μl of lysate was added to 25 μl of a mixture containing polyrA-pdT (Pharmacia, Piscataway, N.J.), MgCl2, and 3H-labeled deoxythymidine 5′-triphosphate (DuPont NEN, Boston, Mass.), and incubated for 1 hr at 37° C. The mixture was spotted on DE81 paper, air-dried, fixed in 0.1 M sodium pyrophosphate, washed three times in 0.3 M ammonium formate, and an additional time in 95% ethanol. The paper was then dried and counted on a scintillation counter.
Cells were split 1:5 after the second, third, and fourth time points and fresh inhibitor was added at the appropriate concentration at each of these intervals. The data were expressed as values +/−standard deviation of the mean.

feline T-cells = assay: Toxicity to feline T-cells in culture; format: cell-based
Protocol: For FIV, the assays were performed in FIV-infected feline T-cells which were cultured in the presence of compound 1200 at different concentrations over the course of 1 month. Each data in FIG. 14 represents the amount of pelletable FIV reverse transcriptase in the culture supernatant. […] Furthermore, this inhibitor was not toxic to feline T-cells. After one month, the drug-treated cultures were split and replated with and without compound 1200.
The lymphocytic cell line 104-C1 (provided by C. Grant) was used as the target for infection. Cells were cultured in RPMI-1640 media supplemented with 10% FBS, 200 μM L-Glutamine, 1×MEM-Vitamins, 100 μM Sodium Pyruvate, 1×Non-Essential Amino Acids, 5.5×10−5M b-ME, 50 μg/ml Gentamicin, 50 U/ml human recombinant Interleukin-2 (provided by Hoffmann-LaRoche) and 7.5 μg/ml Concanavalin-A. For inhibitor assessment, 5×10^6 cells were infected with FIV-PPR (4×105 RT units) in 1 mL culture for 2 hr at 37° C. No virus and virus only controls were incubated in a similar manner. The cells were then washed with Hanks-buffered saline solution (HBSS) and resuspended in 10 ml of complete medium. […] The culture supernatants were monitored for the presence of pelletable reverse transcriptase activity at weekly intervals, as follows. […] The paper was then dried and counted on a scintillation counter.

CC(C)[C@H](NC(=O)[C@H](C)NC(=O)OCc1ccccc1)C(=O)N[C@@H](Cc1ccccc1)[C@@H](O)[C@H](O)[C@H](Cc1ccccc1)NC(=O)[C@@H](NC(=O)[C@H](C)NC(=O)OCc1ccccc1)C(C)C [Compound 1b]
prevention of FIV infection in tissue culture (in words) [1]: strongly inhibits
FIV replication, pelletable reverse transcriptase ([1]; 1.0 μg/ml (1.1 μM)): most effective
virus after drug-treated cultures were split and replated with and without drug ([1]; after one month of treatment, two weeks in culture): No virus was detected
resistance development against the drug ([1]; eight weeks of continuous culture): No sign of resistance development
FIV replication, pelletable reverse transcriptase [1]: markedly inhibit
toxicity to cells (feline T-cells): not toxic

Reference: patent US6803466B1, “HIV/FIV protease inhibitors having a small P3 residue” (The Scripps Research Institute, priority 1997, dated 2004)
